Consider 19 compounds from US5225528A, “Cyclic hexapeptide oxytocin antagonists” (priority 1990, dated 1993).

Broadly, the IC50 is the midpoint of a concentration-inhibition curve.

SMILES strings stand for the structures. Numbered stars: 1 amine (or outer) side, 2 acyl side, 3 side chain; on linkers, the order of the positions; unused ones are H or OH. Square brackets hold non-standard residues; d marks the D form. Peptide text beside a SMILES is read from it. * marks the point of attachment. ξ: configuration not given here. X2 = O=C(OCc1ccccc1)N1CCN([*:1])[C@H](C(=O)[*:2])C1; d2Nal = N[C@H](Cc1ccc2ccccc2c1)C(=O)O; d(aIle) = CC[C@H](C)[C@@H](N)C(=O)O; X12 = O=C([C@@H]1CCCNN1[*:1])[*:2]; Hyp = O=C(O)[C@@H]1C[C@@H](O)CN1; X6 = O=C([C@H]1CCCNN1[*:1])[*:2]; dNMeF = CN[C@H](Cc1ccccc1)C(=O)O; dPip(4-aza) = O=C(O)[C@H]1CNCCN1; Cha = N[C@@H](CC1CCCCC1)C(=O)O; dChg = N[C@@H](C(=O)O)C1CCCCC1; dPhg = N[C@@H](C(=O)O)c1ccccc1; ξmTyr = NC(Cc1cccc(O)c1)C(=O)O; Chg = N[C@H](C(=O)O)C1CCCCC1; Phg = N[C@H](C(=O)O)c1ccccc1; dPip = O=C(O)[C@H]1CCCCN1; NMeA = CN[C@@H](C)C(=O)O; dNMeA = CN[C@H](C)C(=O)O; Boc = CC(C)(C)OC(=O)*; Bn = c1ccc(C*)cc1; Acm = CC(=O)NC*

In the first test the target is T1, uterine OT receptors (Rattus norvegicus, UniProt P70536).
T1 construct: from tissue; host or cells: uterus of DES-treated rats, crude membranes
T1 sequence (P70536 1-388): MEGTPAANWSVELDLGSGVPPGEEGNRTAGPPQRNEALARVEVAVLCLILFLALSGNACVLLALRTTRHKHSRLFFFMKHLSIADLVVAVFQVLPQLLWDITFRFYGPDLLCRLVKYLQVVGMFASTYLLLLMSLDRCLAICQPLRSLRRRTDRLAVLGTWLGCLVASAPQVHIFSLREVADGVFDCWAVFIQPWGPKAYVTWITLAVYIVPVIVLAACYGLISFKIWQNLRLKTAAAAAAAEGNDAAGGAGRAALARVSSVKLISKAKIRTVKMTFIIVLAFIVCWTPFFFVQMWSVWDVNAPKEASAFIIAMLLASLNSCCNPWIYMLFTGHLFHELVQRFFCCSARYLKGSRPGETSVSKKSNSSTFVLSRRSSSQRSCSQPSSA
As to the kind of experiment: [^3 H]OT binding to uterine OT receptors, crude membrane preparation of uteri from DES-treated rats. To be noted: 1 h; @ 1,000 (nM); read-out: [^3 H]OT: percent inhibition of radioligand at the given concentration. As to the method:
Competition studies were conducted at equilibrium (60 minutes; 22° C.) using 1 nM [^3 H]OT in the following assay buffer: 50 mM Tris-HCl, 5 mM MgCl2, and 0.1% BSA, pH 7.4.
In the case of `CC[C@H](C)[C@@H]1NC(=O)[C@@H](Cc2ccccc2)NC(=O)[C@@H]2CCCN2C(=O)[C@@H](Cc2ccccc2)NC(=O)[C@@H]2CN(C(=O)OCc3ccccc3)CCN2C(=O)[C@H]2CCCN2C1=O` [Example 163, c-[D-Phenylalanyl-L-isoleucinyl-D-prolyl-L-piperazin-2-yl(4-Cbz)-D-phenylalanyl-L-prolyl]] (cyclo([dF]I[dP][X2][dF]P)), the inhibition at 1 µM was 49%.
The same measure, in the same setting: the result for `CC[C@H](C)[C@@H]1NC(=O)C(Cc2cccc(O)c2)NC(=O)[C@@H]2CCCN2C(=O)[C@@H](Cc2ccccc2)N(C)C(=O)[C@H](CCCCNC(=O)OC(C)(C)C)NC(=O)[C@H]2CCCCN2C1=O` (stereo partly drawn) [Example 143, C-[D,L-meta-Tyrosinyl-L-isoleucyl-D-pipecolyl-L-(N-t-butyloxycarbonyl)lysyl-D-(N-methyl)phenylalanyl-L-prolyl]] (cyclo(I[dPip]K(Boc)[dNMeF]P[ξmTyr])) reads 68%.

Still in this test, the particulars now being: rat uterus membranes, 1 nM [^3 H]OT; read-out: Receptor Binding Results IC50 (nM) [^3 H]OT.
For the compound `CCOc1ccc(C[C@H]2NC(=O)[C@@H]3CCCN3C(=O)[C@@H](Cc3ccccc3)NC(=O)[C@H](CC(N)=O)NC(=O)[C@@H](CCC(N)=O)NC(=O)[C@@H]([C@@H](C)CC)NC2=O)cc1` [Example 101] (cyclo(N[dF]P[dY](Et)[d(aIle)][dQ])), the 50% inhibitory concentration (IC50) is more than 10000 nM.
Same read-out and setting: the result for `C[C@@H](OCc1ccccc1)[C@@H]1NC(=O)[C@@H](Cc2ccccc2)NC(=O)[C@@H]2CCCN2C(=O)[C@@H](Cc2ccccc2)NC(=O)[C@@H]2CCCN2C(=O)[C@H]2CCCN2C1=O` [Example 72, c-[D-Phenylalanyl-L-(O-benzyl)-threoninyl-D-prolyl-L-prolyl-D-phenylalanyl-L-prolyl]] (cyclo([dF]P[dF]T(Bn)[dP]P)) reads more than 10000 nM.
As to `CC[C@H](C)[C@@H]1NC(=O)[C@@H](Cc2ccccc2)NC(=O)[C@@H]2CCCN2C(=O)[C@@H](CSCNC(C)=O)NC(=O)[C@@H]2CCCN2C(=O)[C@H]2CCCN2C1=O` [Example 58, c-[D-Phenylalanyl-L-isoleucyl-D-prolyl-L-prolyl-D-cysteinyl(Acm)-L-prolyl]] (cyclo([dC](Acm)P[dF]I[dP]P)), the IC50 was more than 10000 nM.
Take `CC[C@H](C)[C@@H]1NC(=O)[C@@H](Cc2ccccc2)NC(=O)[C@@H]2CCCN2C(=O)[C@@H](Cc2ccccc2)NC(=O)[C@H](Cc2c[nH]cn2)NC(=O)[C@@H](Cc2c[nH]cn2)NC1=O` [Example 69, c[D-Phenylalanyl-L-isoleucyl-D-histidinyl-L-histidinyl-D-phenylalanyl-L-prolyl]] (cyclo(H[dF]P[dF]I[dH])): the IC50 worked out at 10000 nM.
In the case of `CC[C@H](C)[C@@H]1NC(=O)[C@@H](Cc2ccccc2)NC(=O)[C@@H]2CCCN2C(=O)[C@@H](Cc2ccccc2)NC(=O)[C@H](C)N(C)C(=O)[C@@H](C)N(C)C1=O` [Example 54, c-[D-Phenylalanyl-L-isoleucyl-N-methyl-D-alanyl-N-methyl-L-alanyl-D-phenylalanyl-L-prolyl]] (cyclo(I[dNMeA][NMeA][dF]P[dF])), the IC50 was found to be 3000 nM.
For the compound `C[C@@H](O)[C@@H]1NC(=O)[C@@H](Cc2ccccc2)NC(=O)[C@@H]2CCCN2C(=O)[C@@H](Cc2ccccc2)NC(=O)[C@@H]2CCCN2C(=O)[C@H]2CCCN2C1=O` [Example 73, c-[D-Phenylalanyl-L-threoninyl-D-prolyl-L-prolyl-D-phenylalanyl-L-prolyl]] (cyclo([dF]P[dF]T[dP]P)), the IC50 is more than 10000 nM.
With `CC[C@H](C)[C@@H]1NC(=O)[C@@H](Cc2ccccc2)NC(=O)[C@@H]2CCCN2C(=O)[C@@H]([C@H](C)OCc2ccccc2)NC(=O)[C@@H]2CCCN2C(=O)[C@H]2CCCN2C1=O` [Example 61, c-[D-Phenylalanyl-L-isoleucyl-D-prolyl-L-prolyl-D-threoninyl(Bzl)-L-prolyl]] (cyclo([dT](Bn)P[dF]I[dP]P)), the IC50 is more than 10000 nM.
`CC[C@H](C)[C@@H]1NC(=O)[C@@H](Cc2ccccc2)NC(=O)[C@@H]2CCCN2C(=O)[C@@H](Cc2ccccc2)NC(=O)[C@H](CC(N)=O)NC(=O)[C@H](CCC(N)=O)NC1=O` [Example 100] (cyclo([dF]IQN[dF]P)): the IC50 is 5080 nM.
Regarding `O=C1N[C@@H](c2ccccc2)C(=O)N2CCC[C@@H]2C(=O)N2CCC[C@H]2C(=O)N[C@H](Cc2ccccc2)C(=O)N2CCC[C@H]2C(=O)N[C@@H]1Cc1ccccc1` [Example 63, c-[D-Phenylalanyl-L-phenylglycyl-D-prolyl-L-prolyl-D-phenylalanyl-L-prolyl]] (cyclo([dF]P[dF][Phg][dP]P)), the IC50 was more than 10000 nM.
As to `O=C1N[C@@H](CC2CCCCC2)C(=O)N2CCC[C@@H]2C(=O)N2CCC[C@H]2C(=O)N[C@H](Cc2ccccc2)C(=O)N2CCC[C@H]2C(=O)N[C@@H]1Cc1ccccc1` [Example 56, c-[D-Phenylalanyl-L-cyclohexylalanyl-D-prolyl-L-prolyl-D-phenylalanyl-L-prolyl]] (cyclo([dF]P[dF][Cha][dP]P)), the IC50 was more than 10000 nM.
With `CC[C@H](C)[C@@H]1NC(=O)[C@@H](Cc2ccccc2)NC(=O)[C@@H]2CCCN2C(=O)[C@@H](Cc2ccccc2)NC(=O)[C@H](C2CCCCC2)NC(=O)[C@@H](C2CCCCC2)NC1=O` [Example 65] (cyclo([Chg][dF]P[dF]I[dChg])), the IC50 was more than 10000 nM.
For the compound `CC[C@H](C)[C@@H]1NC(=O)[C@@H](Cc2ccccc2)NC(=O)CNC(=O)[C@@H](CCC(N)=O)NC(=O)[C@@H]2CCCN2C(=O)[C@H]2CCCN2C1=O` [Example 57] (cyclo([dF]I[dP]P[dQ]G)), the IC50 was more than 10000 nM.
Consider `CC[C@H](C)[C@@H]1NC(=O)[C@@H](Cc2ccc3ccccc3c2)NC(=O)[C@@H]2CCCN2C(=O)[C@@H](Cc2c[nH]cn2)NC(=O)[C@H]2CNCCN2C(=O)[C@H]2CCCCN2C1=O` [Example 161, c-[D-2-Naphthylalanyl-L-isoleucyl-D-pipecolyl-D-piperazin-2-yl-D-histidyl-L-prolyl]] (cyclo(I[dPip][dPip(4-aza)][dH]P[d2Nal])), for which the IC50 is 6.7 nM.
On to `CC[C@H](C)[C@@H]1NC(=O)[C@@H](Cc2ccc(O)cc2)NC(=O)[C@@H]2CCCN2C(=O)[C@@H](Cc2ccccc2)NC(=O)[C@@H]2CCCNN2C(=O)[C@H]2CCCNN2C1=O` [Example 97] (cyclo([dY]I[X6][X12][dF]P)), for which the IC50 is more than 10000 nM.
Take `CC[C@H](C)[C@@H]1NC(=O)[C@@H](Cc2ccccc2)NC(=O)[C@@H]2CCCN2C(=O)[C@@H](Cc2ccccc2)NC(=O)[C@H](C)NC(=O)[C@@H](C)NC1=O` [Example 51, c-[D-Phenylalanyl-L-isoleucyl-D-alanyl-L-alanyl-D-phenylalanyl-L-prolyl]] (cyclo(A[dF]P[dF]I[dA])): the IC50 is more than 10000 nM.
On the same count and under the same terms, the result for `CC[C@H](C)[C@@H]1NC(=O)[C@@H](Cc2ccccc2)NC(=O)[C@@H]2CCCN2C(=O)[C@@H](Cc2ccccc2)NC(=O)[C@@H]2C[C@@H](O)CN2C(=O)[C@H]2CCCN2C1=O` [Example 71, c-[D-Phenylalanyl-L-isoleucyl-D-prolyl-L-trans-hydroxyprolyl-D-phenylalanyl-L-prolyl]] (cyclo([Hyp][dF]P[dF]I[dP])) reads more than 10000 nM; that for `CC[C@H](C)[C@@H]1NC(=O)[C@@H](Cc2ccccc2)NC(=O)[C@@H]2CCCN2C(=O)[C@@H](Cc2ccccc2)NC(=O)[C@H](c2ccccc2)NC(=O)[C@@H](c2ccccc2)NC1=O` [Example 70, c-[D-Phenylalanyl-L-isoleucyl-D-phenylglycinyl-L-phenylglycinyl-D-phenylalanyl-L-prolyl]] (cyclo(I[dPhg][Phg][dF]P[dF])), more than 10000 nM.
